Measurements as given in US11905280B1, “2-(benzo[d]oxazol-2-yl)-N'-(picolinoyloxy)acetimidamide as an antimicrobial compound” (KING FAISAL UNIVERSITY, priority 2023, dated 2024).

Columns and labels:
[1] = test system: Chrysosporium keratinophilum; assay: Agar plate disc-diffusion antifungal test; format: cell-based; conditions: Sabouraud's dextrose agar, 72 hours
Description: (§1) The agar plate disc-diffusion method was applied. Sterilized filter papers (6 mm in diameter) were wetted with 10 μL of a solution of 2-(benzo[d]oxazol-2-yl)-N′-(picolinoyloxy)acetimidamide (3) to be tested, containing 10 mg/mL in DMSO, and the discs were allowed to air dry. The discs were then placed onto the surface of agar plates (nutrient agar for bacteria and Sabouraud's dextrose agar for fungi) seeded with the test organism. Each plate contained 15 mL of the agar medium, previously seeded with 0.2 mL of the broth culture of each organism pregrown for 18 hours. The plates were incubated at 37° C. for 48 hours, and 72 hours for fungi. The inhibition zones was measured in mm. Discs impregnated with DMSO were used as a control, and its inhibition zone was subtracted from the tested compound actual inhibition zone.

[2] = test system: Aspergillus flavus; assay: Agar plate disc-diffusion antifungal test; format: cell-based; conditions: Sabouraud's dextrose agar, 72 hours
Description: as §1

[3] = test system: Escherichia coli; assay: Agar plate disc-diffusion antibacterial test; format: cell-based; conditions: nutrient agar, 37° C., 48 hours
Description: as §1

[4] = test system: Pseudomonas aeruginosa; assay: Agar plate disc-diffusion antibacterial test; format: cell-based; conditions: nutrient agar, 37° C., 48 hours
Description: as §1

[5] = test system: Bacillus cereus; assay: Agar plate disc-diffusion antibacterial test; format: cell-based; conditions: nutrient agar, 37° C., 48 hours
Description: as §1

[6] = test system: Staphylococcus aureus; assay: Agar plate disc-diffusion antibacterial test; format: cell-based; conditions: nutrient agar, 37° C., 48 hours
Description: as §1

[7] = A = concentration of comp. = 10,000 μL
[8] = B = concentration of comp. = 30,000 μL
[9] = C = concentration of comp. = 50,000 μL

## N/C(Cc1nc2ccccc2o1)=N\OC(=O)c1ccccn1 [Compound 3, 2-(benzo[d]oxazol-2-yl)-N′-(picolinoyloxy)acetimidamide]
other
  melting point: 156 to 158 °C
[1]; [7]
  inhibition zone, Chrysosporium keratinophilum, A: 23 mm
[1]; [8]
  inhibition zone, Chrysosporium keratinophilum, B: 29 mm
[1]; [9]
  inhibition zone, Chrysosporium keratinophilum, C: 48 mm
[2]; [7]
  inhibition zone, Aspergillus flavus, A: 24 mm
[2]; [8]
  inhibition zone, Aspergillus flavus, B: 27 mm
[2]; [9]
  inhibition zone, Aspergillus flavus, C: 38 mm
[3]; [7]
  inhibition zone, Escherichia coli, A: 29 mm
[3]; [8]
  inhibition zone, Escherichia coli, B: 37 mm
[3]; [9]
  inhibition zone, Escherichia coli, C: 53 mm
[4]; [7]
  inhibition zone, Pseudomonas aeruginosa, A: 25 mm
[4]; [8]
  inhibition zone, Pseudomonas aeruginosa, B: 31 mm
[4]; [9]
  inhibition zone, Pseudomonas aeruginosa, C: 45 mm
[5]; [7]
  inhibition zone, Bacillus Cereus, A: 25 mm
[5]; [8]
  inhibition zone, Bacillus Cereus, B: 27 mm
[5]; [9]
  inhibition zone, Bacillus Cereus, C: 39 mm
[6]; [7]
  inhibition zone, Staphylococcus aureus, A: 15 mm
[6]; [8]
  inhibition zone, Staphylococcus aureus, B: 20 mm
[6]; [9]
  inhibition zone, Staphylococcus aureus, C: 28 mm
